Source: patent US20260334439A1, “BCAT2 INHIBITORS” (Agios Pharmaceuticals, Inc., priority 2023, published 2026)
pIC50: −log10 of the molar value.

Target: T1, BCAT2 (Homo sapiens, UniProt O15382)
T1 sequence (O15382 28-392): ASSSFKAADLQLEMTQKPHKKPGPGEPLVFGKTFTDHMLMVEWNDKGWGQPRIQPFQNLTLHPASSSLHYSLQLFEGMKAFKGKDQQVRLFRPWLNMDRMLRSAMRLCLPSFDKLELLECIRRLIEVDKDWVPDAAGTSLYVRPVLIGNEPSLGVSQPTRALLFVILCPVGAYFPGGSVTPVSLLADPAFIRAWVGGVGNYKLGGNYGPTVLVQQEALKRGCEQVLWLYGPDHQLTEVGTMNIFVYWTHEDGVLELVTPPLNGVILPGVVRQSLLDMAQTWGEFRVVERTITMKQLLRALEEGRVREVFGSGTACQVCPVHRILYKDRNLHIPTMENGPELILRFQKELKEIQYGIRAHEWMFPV
Test: BCAT2 in vitro enzyme inhibition assay (hBCAT2, glutamate dehydrogenase/diaphorase/resazurin coupled fluorescence read)
Format: biochemical
Settings: hBCAT2, 1 h preincubation at 25° C., one hour reaction; average where tested multiple times
Experimental: • 2×Buffer: 200 mM Tris pH 8.0, 300 mM NaCl, 0.1% BSA • 1.67×hBCAT2 Enzyme Mix: 0.33 μg/mL hBCAT2, 1× Buffer • 2.5×Substrate Mix: 460 µM L-leucine, 420 µM α-KetoGlutarate, 10 U/mL glutamate dehydrogenase, 10 mM NAD, […] diaphorase, […] Resazurin
BCAT2 enzyme stock solution was diluted to prepare a 1.67×hBCAT2 Enzyme Mix. 1 μL of test compound was first added to the reaction wells followed by 30 μL of 1.67×hBCAT2 Enzyme Mix and incubated at room temperature (25° C.) for one hour. Meanwhile the Substrate Mix was prepared. The reaction was initiated by the addition of 20 μL of the 2.5×Substrate Mix, bringing the final reaction mix of all components to 1×. Reactions were quenched after one hour by the addition of 25 μL of 6% SDS and reaction progress was measured via fluorescence read (Ex 540/Em 590).
Test compounds were prepared at 50×final concentration in DMSO, 1 to 3 dilutions were made for 10 points. The compounds were added to the assay as a 1 to 50 dilution (1 μL in 50 μL) to yield a top assay final concentration of 100 μM, decreasing 3-fold for 10 points. Each compound dilution series test also included an assay max (1 μL DMSO Added in lieu of compound, Full Reaction Components Included) and Min (1 μL DMSO Added in lieu of compound, 30 μl of 1.67×hBCAT2 Enzyme Mix replated by 30 μL of 1×Buffer). All tests were performed in technical duplicate.
Where a compound was tested multiple times, the average value of the tests is reported.

Compound	pIC50
CC(CCO)Cc1nc2cnc(-c3nc[nH]n3)cc2n1[C@@H]1CCC[C@H](NC(=O)c2cc(Cl)ccn2)C1 (stereo partly drawn) [Example 96, 4-chloro-N-((1S,3R)-3-(2-(4-hydroxy-2-methylbutyl)-6-(1H-1,2,4-triazol-3-yl)-1H-imidazo[4,5-c]pyridin-1-yl)cyclohexyl)picolinamide]	< 6.00
CCN1C[C@H](NC(=O)c2cc(F)ccn2)C[C@H](n2c(-c3ccccc3F)nc3cnc(-c4nc[nH]n4)cc32)C1 [Example 148, N-((3R,5S)-1-ethyl-5-(2-(2-fluorophenyl)-6-(1H-1,2,4-triazol-3-yl)-1H-imidazo[4,5-c]pyridin-1-yl)piperidin-3-yl)-4-fluoropicolinamide]	> 7.00
CN1C[C@H](NC(=O)c2cc(Cl)ccn2)C[C@H](n2c(-c3ccccc3OCCO)nc3ccc(-c4ncccn4)cc32)C1 [Example 234, 4-chloro-N-((3R,5S)-5-(2-(2-(2-hydroxyethoxy)phenyl)-6-(pyr-imidin-2-yl)-1H-benzo[d]imid-azol-1-yl)-1-methylpiperidin-3-yl)picolinamide]	> 7.00
CN1C[C@@H](NC(=O)c2cc(Cl)ccn2)C[C@@H](n2c(-c3ccccc3OCCO)nc3cnc(-c4ncco4)cc32)C1 [Example 160, 4-chloro-N-((3S,5R)-5-(2-(2-(2-hydroxyethoxy)phenyl)-6-(oxazol-2-yl)-1H-imidazo[4,5-c]pyridin-1-yl)-1-methylpiperidin-3-yl)picolinamide]	< 6.00
COc1ccc(C(F)(F)F)cc1C(=O)N[C@H]1CCC[C@@H](n2c(-c3ccccc3F)nc3cnc(-c4nc[nH]n4)cc32)C1 [Example 9, N-((1S,3R)-3-(2-(2-fluorophenyl)-6-(1H-1,2,4-triazol-3-yl)-1H-imidazo[4,5-c]pyridin-1-yl)cyclohexyl)-2-methoxy-5-(trifluoromethyl)benzamide]	> 7.00
CN1C[C@H](NC(=O)c2cc(Cl)ccn2)C[C@H](n2c(-c3ccccc3OCCO)nc3cnc(-c4ncccn4)cc32)C1 [Example 164, 4-chloro-N-((3R,5S)-5-(2-(2-(2-hydroxyethoxy)phenyl)-6-(pyrimidin-2-yl)-1H-imidazo[4,5-c]pyridin-1-yl)-1-methylpiperidin-3-yl)picolinamide]	> 7.00
COc1ccc(Cl)cc1C(=O)N[C@H]1CCCC[C@@H](n2c(-c3c(F)cccc3OC)nc3cnc(-c4nc[nH]n4)cc32)[C@@H]1O [Example 110, 5-chloro-N-((1S,2R,3R)-3-(2-(2-fluoro-6-methoxyphenyl)-6-(1H-1,2,4-triazol-3-yl)-1H-imidazo[4,5-c]pyridin-1-yl)-2-hydroxycycloheptyl)-2-methoxybenzamide]	> 7.00
N[C@@H]1[C@@H](NC(=O)c2cc(F)ccc2F)CCC[C@H]1n1c(-c2ccccc2F)nc2cnc(-c3nc[nH]n3)cc21 [Example 127, N-((1S,2R,3R)-2-amino-3-(2-(2-fluorophenyl)-6-(1H-1,2,4-triazol-3-yl)-1H-imidazo[4,5-c]pyridin-1-yl)cyclohexyl)-2,5-difluorobenzamide]	> 7.00
O=C(N[C@H]1CCC[C@@H](n2c(-c3ccccc3F)nc3cnc(-c4nc[nH]n4)cc32)C1)c1ccc(F)cc1F [Example 75, 2,4-difluoro-N-((1S,3R)-3-(2-(2-fluorophenyl)-6-(1H-1,2,4-triazol-3-yl)-1H-imidazo[4,5-c]pyridin-1-yl)cyclohexyl)benzamide]	> 7.00
CN1C[C@H](NC(=O)c2cc(F)ccn2)C[C@H](n2c(-c3ccccc3OCCO)nc3cnc(-c4ncccn4)cc32)C1 [Example 163, 4-fluoro-N-((3R,5S)-5-(2-(2-(2-hydroxyethoxy)phenyl)-6-(pyrimidin-2-yl)-1H-imidazo[4,5-c]pyridin-1-yl)-1-methylpiperidin-3-yl)picolinamide]	> 7.00
CCN1C[C@@H](NC(=O)c2cc(F)ccn2)C[C@@H](n2c(-c3ccccc3F)nc3cnc(-c4nc[nH]n4)cc32)C1 [Example 149, N-((3S,5R)-1-ethyl-5-(2-(2-fluorophenyl)-6-(1H-1,2,4-triazol-3-yl)-1H-imidazo[4,5-c]pyridin-1-yl)piperidin-3-yl)-4-fluoropicolinamide]	6.00 to 6.30
CN1C[C@H](N2Cc3ccc(F)cc3C2=O)C[C@H](n2c(-c3ccccc3OCCO)nc3cnc(-c4nc[nH]n4)cc32)C1 [Example 197, 6-fluoro-2-((3R,5S)-5-(2-(2-(2-hydroxyethoxy)phenyl)-6-(1H-1,2,4-triazol-3-yl)-1H-imidazo[4,5-c]pyridin-1-yl)-1-methylpiperidin-3-yl)isoindolin-1-one]	> 7.00
CN1C[C@@H](NC(=O)c2cc(F)ccn2)C[C@@H](n2c(-c3ccccc3OC(F)F)nc3cnc(-c4nc[nH]n4)cc32)C1 [compound 140]	6.00 to 6.30
CN1C[C@@H](NC(=O)c2cc(Cl)ccc2F)C[C@@H](n2c(-c3ccccc3F)nc3cnc(-c4nc[nH]n4)cc32)C1 [Example 144, 5-chloro-2-fluoro-N-((3S,5R)-5-(2-(2-fluorophenyl)-6-(1H-1,2,4-triazol-3-yl)-1H-imidazo[4,5-c]pyridin-1-yl)-1-methylpiperidin-3-yl)benzamide]	6.30 to 7.00
COc1ccc(Cl)cc1C(=O)N[C@H]1C[C@@H](n2c(-c3ncccc3F)nc3cnc(-c4nc[nH]n4)cc32)CN(C)C1 [Example 138, 5-chloro-N-((3S,5R)-5-(2-(3-fluoropyridin-2-yl)-6-(1H-1,2,4-triazol-3-yl)-1H-imidazo[4,5-c]pyridin-1-yl)-1-methylpiperidin-3-yl)-2-methoxybenzamide]	< 6.00
Cc1coc(-c2cc3c(cn2)nc(-c2ccccc2F)n3[C@@H]2CCC[C@H](N3Cc4ccc(F)cc4C3=O)[C@H]2O)n1 [Example 193, 6-fluoro-2-((1S,2S,3R)-3-(2-(2-fluorophenyl)-6-(4-methyloxazol-2-yl)-1H-imidazo[4,5-c]pyridin-1-yl)-2-hydroxycyclohexyl)isoindolin-1-one]	> 7.00
COc1ccc(Cl)cc1C(=O)N[C@@H]1C[C@@H](O)C[C@H](n2c(CC(C)C)nc3cnc(-c4ncccn4)cc32)C1 [Example 112, 5-chloro-N-((1S,3R,5R)-3-hydroxy-5-(2-isobutyl-6-(pyrimidin-2-yl)-1H-imidazo[4,5-c]pyridin-1-yl)cyclohexyl)-2-methoxybenzamide]	< 6.00
O=C(N[C@H]1CCC[C@@H](n2c(-c3ncccc3F)nc3cnc(-c4nc[nH]n4)cc32)C1)c1cc(Cl)ccc1OC(F)F [compound 47]	> 7.00
CN1C[C@@H](NC(=O)c2cc(Cl)ccn2)C[C@@H](n2c(-c3ccccc3OCCO)nc3cnc(-n4nccn4)cc32)C1 [Example 156, 4-chloro-N-((3S,5R)-5-(2-(2-(2-hydroxyethoxy)phenyl)-6-(2H-1,2,3-triazol-2-yl)-1H-imidazo[4,5-c]pyridin-1-yl)-1-methylpiperidin-3-yl)picolinamide]	< 6.00
CN1CC(NC(=O)c2cc(F)ccc2F)CC(n2c(-c3ncccc3F)nc3cnc(-c4nc[nH]n4)cc32)C1 (stereo not drawn) [Example 146, 2,5-difluoro-N-(5-(2-(3-fluoropyridin-2-yl)-6-(1H-1,2,4-triazol-3-yl)-1H-imidazo[4,5-c]pyridin-1-yl)-1-methylpiperidin-3-yl)benzamide]	6.30 to 7.00
Cc1coc(-c2cc3c(cn2)nc(-c2ccccc2F)n3[C@@H]2CCC[C@H](NC(=O)c3cc(F)ccc3F)[C@H]2O)n1 [Example 125, 2,5-difluoro-N-((1S,2R,3R)-3-(2-(2-fluorophenyl)-6-(4-methyloxazol-2-yl)-1H-imidazo[4,5-c]pyridin-1-yl)-2-hydroxycyclohexyl)benzamide]	> 7.00
CN1C[C@@H](N2Cc3ccc(F)cc3C2=O)C[C@@H](n2c(-c3ccccc3OCCO)nc3ccc(-c4ncccn4)cc32)C1 [Example 244, 6-fluoro-2-((3S,5R)-5-(2-(2-(2-hydroxyethoxy)phenyl)-6-(pyr-imidin-2-yl)-1H-benzo[d]imid-azol-1-yl)-1-methylpiperidin-3-yl)isoindolin-1-one]	6.00 to 6.30
CN1C[C@@H](NC(=O)c2cc(F)ccc2F)C[C@@H](n2c(-c3ccccc3OCCO)nc3cnc(-c4ncco4)cc32)C1 [Example 159, 2,5-difluoro-N-((3S,5R)-5-(2-(2-(2-hydroxyethoxy)phenyl)-6-(oxazol-2-yl)-1H-imidazo[4,5-c]pyridin-1-yl)-1-methylpiperidin-3-yl)benzamide]	< 6.00
CO[C@H]1C[C@H](NC(=O)c2cc(F)ccn2)C[C@H](n2c(-c3ccccc3OCCO)nc3ccc(-c4ncccn4)cc32)C1 [Example 224, 4-fluoro-N-((1R,3S,5S)-3-(2-(2-(2-hydroxyethoxy)phenyl)-6-(pyrimidin-2-yl)-1H-benzo[d]imidazol-1-yl)-5-methoxycyclo-hexyl)picolinamide]	> 7.00
